Data: ChEMBL document CHEMBL4270599, “Synthesis of a 3'-C-ethynyl-β-d-ribofuranose purine nucleoside library: Discovery of C7-deazapurine analogs as potent antiproliferative nucleosides” (Eur J Med Chem, 2018)

Legend:
T47D = test: Growth inhibition of human T47D cells assessed as cell growth at 10^-7 M incubated for 48 hrs by sulforhodamine B assay relative to control; format: functional; conditions: read-out: Activity
OVCAR-8 = test: Growth inhibition of human OVCAR8 cells assessed as cell growth at 10^-8 M incubated for 48 hrs by sulforhodamine B assay relative to control; format: functional; conditions: OVCAR-8, 48 h, read-out: Activity
OVCAR-5 = test: Cytotoxicity against human OVCAR5 cells after 48 hrs by SRB assay; format: functional; conditions: OVCAR-5, 48 h; for GI50: read-out: pGI50 (converted)
SF-268 [1] = test: Cytotoxicity against human SF268 cells after 48 hrs by SRB assay; format: functional; conditions: SF-268, 48 h; for GI50: read-out: pGI50 (converted)
RXF 393 = test: Growth inhibition of human RXF393 cells assessed as cell growth at 10^-7 M incubated for 48 hrs by sulforhodamine B assay relative to control; format: functional; conditions: RXF 393, 48 h, read-out: Activity
BT-549 [2] = test: Growth inhibition of human BT549 cells assessed as cell growth at 10^-7 M incubated for 48 hrs by sulforhodamine B assay relative to control; format: functional; conditions: BT-549, 48 h, read-out: Activity
HT-29 = test: Growth inhibition of human HT-29 cells assessed as cell growth at 10^-8 M incubated for 48 hrs by sulforhodamine B assay relative to control; format: functional; conditions: HT-29, 48 h, read-out: Activity
HOP-62 = test: Growth inhibition of human HOP62 cells assessed as cell growth at 10^-8 M incubated for 48 hrs by sulforhodamine B assay relative to control; format: functional; conditions: HOP-62, 48 h, read-out: Activity
MDA-MB-231 = test: Growth inhibition of human MDA-MB-231 cells assessed as cell growth at 10^-7 M incubated for 48 hrs by sulforhodamine B assay relative to control; format: functional; conditions: MDA-MB-231, 48 h, read-out: Activity
SK-OV-3 = test: Growth inhibition of human SKOV3 cells assessed as cell growth at 10^-8 M incubated for 48 hrs by sulforhodamine B assay relative to control; format: functional; conditions: SK-OV-3, 48 h, read-out: Activity
SF-268 [3] = test: Growth inhibition of human SF268 cells assessed as cell growth at 10^-7 M incubated for 48 hrs by sulforhodamine B assay relative to control; format: functional; conditions: SF-268, 48 h, read-out: Activity
NCI-H460 = test: Growth inhibition of human NCI-H460 cells assessed as cell growth at 10^-8 M incubated for 48 hrs by sulforhodamine B assay relative to control; format: functional; conditions: NCI-H460, 48 h, read-out: Activity
SNB-75 = test: Growth inhibition of human SNB75 cells assessed as cell growth at 10^-8 M incubated for 48 hrs by sulforhodamine B assay relative to control; format: functional; conditions: SNB-75, 48 h, read-out: Activity
RPMI-8226 = test: Cytotoxicity against human RPMI8226 cells after 48 hrs by SRB assay; format: functional; conditions: RPMI-8226, 48 h; for CC50: read-out: LC50 (the source's name); for GI50: read-out: pGI50 (converted)
K562 = test: Cytotoxicity against human K562 cells after 48 hrs by SRB assay; format: functional; conditions: K562, 48 h; for CC50: read-out: LC50 (the source's name); for GI50: read-out: pGI50 (converted)
NCI-H226 = test: Cytotoxicity against human NCI-H226 cells after 48 hrs by SRB assay; format: functional; conditions: NCI-H226, 48 h; for GI50: read-out: pGI50 (converted); for CC50: read-out: pLC50 (the source's name) (converted)
ACHN = test: Growth inhibition of human ACHN cells assessed as cell growth at 10^-6 M incubated for 48 hrs by sulforhodamine B assay relative to control; format: functional; conditions: read-out: Activity
SW-620 = test: Growth inhibition of human SW620 cells assessed as cell growth at 10^-8 M incubated for 48 hrs by sulforhodamine B assay relative to control; format: functional; conditions: SW-620, 48 h, read-out: Activity
SK-MEL-2 = test: Growth inhibition of human SK-MEL-2 cells assessed as cell growth at 10^-6 M incubated for 48 hrs by sulforhodamine B assay relative to control; format: functional; conditions: SK-MEL-2, 48 h, read-out: Activity
UACC-257 = test: Growth inhibition of human UACC257 cells assessed as cell growth at 10^-7 M incubated for 48 hrs by sulforhodamine B assay relative to control; format: functional; conditions: UACC-257, 48 h, read-out: Activity
SN12C = test: Cytotoxicity against human SN12C cells after 48 hrs by SRB assay; format: functional; conditions: for CC50: read-out: pLC50 (the source's name) (converted)
U-251 = test: Growth inhibition of human U251 cells assessed as cell growth at 10^-5 M incubated for 48 hrs by sulforhodamine B assay relative to control; format: functional; conditions: U-251, 48 h, read-out: Activity
BT-549 [4] = test: Cytotoxicity against human BT549 cells after 48 hrs by SRB assay; format: functional; conditions: BT-549, 48 h; for GI50: read-out: pGI50 (converted)
COLO 205 = test: Growth inhibition of human COLO205 cells assessed as cell growth at 10^-8 M incubated for 48 hrs by sulforhodamine B assay relative to control; format: functional; conditions: COLO 205, 48 h, read-out: Activity
EKVX = test: Growth inhibition of human EKVX cells assessed as cell growth at 10^-6 M incubated for 48 hrs by sulforhodamine B assay relative to control; format: functional; conditions: read-out: Activity
OVCAR-4 = test: Growth inhibition of human OVCAR4 cells assessed as cell growth at 10^-8 M incubated for 48 hrs by sulforhodamine B assay relative to control; format: functional; conditions: OVCAR-4, 48 h, read-out: Activity
Malme-3M = test: Growth inhibition of human MALME-3M cells assessed as cell growth at 10^-6 M incubated for 48 hrs by sulforhodamine B assay relative to control; format: functional; conditions: read-out: Activity
TK-10 = test: Growth inhibition of human TK10 cells assessed as cell growth at 10^-5 M incubated for 48 hrs by sulforhodamine B assay relative to control; format: functional; conditions: TK-10, 48 h, read-out: Activity
PC-3 = test: Growth inhibition of human PC3 cells assessed as cell growth at 10^-7 M incubated for 48 hrs by sulforhodamine B assay relative to control; format: functional; conditions: PC-3, 48 h, read-out: Activity
HCT-116 = test: Cytotoxicity against human HCT116 cells after 48 hrs by SRB assay; format: functional; conditions: HCT-116, 48 h; for GI50: read-out: pGI50 (converted)
[5] = Antiproliferative activity against HELF cells after 4 days by Coulter counter method; format: cell-based; conditions: Homo sapiens, 96 h
[6] = read-out: pLC50 (the source's name) (converted)
[7] = read-out: LC50 (the source's name)

`C#C[C@@]1(O)[C@@H](CO)O[C@@H](n2ccc3c(N)ncnc32)[C@@H]1O` gave a growth at 0.1 µM (T47D) of 86%, a growth at 0.01 µM (OVCAR-8) of 103% and a TGI (OVCAR-5; read-out: TGI) of 8.54 µM. It also gave a GI50 (OVCAR-5) of 3.09 µM, a CC50 (OVCAR-5; [6]) of over 100 µM and a TGI (OVCAR-5; read-out: pTGI (converted)) of 8.51 µM. For the same compound, the TGI (SF-268 [1]; read-out: TGI) was 26.1 µM, the GI50 (SF-268 [1]) was 2.34 µM and the CC50 (SF-268 [1]; [6]) was over 100 µM. For the same compound, the TGI (SF-268 [1]; read-out: pTGI (converted)) was 26.3 µM, the growth at 0.1 µM (RXF 393) was 111% and the growth at 0.1 µM (BT-549 [2]) was 102%. The growth at 0.01 µM (HT-29) was 99%, the growth at 0.01 µM (HOP-62) was 87% and the growth at 0.1 µM (MDA-MB-231) was 106%. It also gave a growth at 0.01 µM (SK-OV-3) of 94%, a growth at 0.1 µM (SF-268 [3]) of 95% and a growth at 0.01 µM (NCI-H460) of 89%. It also gave a growth at 0.01 µM (SNB-75) of 86%, a CC50 (RPMI-8226) of over 100 µM and a TGI (RPMI-8226; read-out: TGI) of over 100 µM. It also gave a GI50 (RPMI-8226) of 0.776 µM, a TGI (RPMI-8226; read-out: pTGI (converted)) of over 100 µM and a CC50 (K562) of over 100 µM. For the same compound, the TGI (K562; read-out: TGI) was over 100 µM, the GI50 (K562) was 0.813 µM and the TGI (K562; read-out: pTGI) was over 100 µM. For the same compound, the TGI (NCI-H226; read-out: TGI) was 4.85 µM, the GI50 (NCI-H226) was 2.04 µM and the CC50 (NCI-H226) was 26.3 µM. The TGI (NCI-H226; read-out: pTGI (converted)) was 4.9 µM, the growth at 1 µM (ACHN) was 33% and the growth at 0.01 µM (SW-620) was 72%. The growth at 1 µM (SK-MEL-2) was 60%, the growth at 0.1 µM (UACC-257) was 105% and the TGI (SN12C; read-out: TGI) was 3.91 µM. For the same compound, the GI50 (SN12C; read-out: pGI50 (converted)) was 0.794 µM, the CC50 (SN12C) was 38 µM and the TGI (SN12C; read-out: pTGI (converted)) was 3.89 µM. The growth at 10 µM (U-251) was 2%, the TGI (BT-549 [4]; read-out: TGI) was 3.64 µM and the GI50 (BT-549 [4]) was 1.62 µM. It also gave a CC50 (BT-549 [4]; [6]) of 8.13 µM, a TGI (BT-549 [4]; read-out: pTGI (converted)) of 3.63 µM and a growth at 0.01 µM (COLO 205) of 95%. It also gave a growth at 1 µM (EKVX) of 67%, a growth at 0.01 µM (OVCAR-4) of 93% and a growth at 1 µM (Malme-3M) of 72%. For the same compound, the growth at 10 µM (TK-10) was -2%, the growth at 0.1 µM (PC-3) was 97% and the TGI (HCT-116; read-out: TGI) was 10.8 µM. For the same compound, the GI50 (HCT-116) was 0.589 µM, the CC50 (HCT-116; [6]) was 85.1 µM and the TGI (HCT-116; read-out: pTGI (converted)) was 10.7 µM.
With `C#C[C@@]1(O)[C@@H](CO)O[C@@H](n2cc(F)c3c(N)ncnc32)[C@@H]1O` the growth at 0.1 µM (T47D) was 80%, the growth at 0.01 µM (OVCAR-8) was 96% and the CC50 (OVCAR-5; [7]) was over 100 µM. It also gave a TGI (OVCAR-5; read-out: TGI) of over 100 µM, a GI50 (OVCAR-5) of 1.78 µM and a TGI (OVCAR-5; read-out: pTGI (converted)) of over 100 µM. It also gave a CC50 (SF-268 [1]; [7]) of over 100 µM, a TGI (SF-268 [1]; read-out: TGI) of 78.3 µM and a GI50 (SF-268 [1]) of 0.759 µM. The TGI (SF-268 [1]; read-out: pTGI (converted)) was 77.6 µM, the growth at 0.1 µM (RXF 393) was 102% and the growth at 0.1 µM (BT-549 [2]) was 107%. For the same compound, the IC50 [5] was 0.076 µM, the growth at 0.01 µM (HT-29) was 96% and the growth at 0.01 µM (HOP-62) was 90%. The growth at 0.1 µM (MDA-MB-231) was 88%, the growth at 0.01 µM (SK-OV-3) was 96% and the growth at 0.1 µM (SF-268 [3]) was 105%. It also gave a growth at 0.01 µM (NCI-H460) of 100%, a growth at 0.01 µM (SNB-75) of 92% and a CC50 (RPMI-8226) of over 100 µM. It also gave a TGI (RPMI-8226; read-out: TGI) of 1.98 µM, a GI50 (RPMI-8226) of 0.219 µM and a TGI (RPMI-8226; read-out: pTGI (converted)) of 2 µM. The CC50 (K562) was over 100 µM, the TGI (K562; read-out: TGI) was over 100 µM and the GI50 (K562) was 0.288 µM. It also gave a TGI (K562; read-out: pTGI) of over 100 µM, a TGI (NCI-H226; read-out: TGI) of 2.63 µM and a GI50 (NCI-H226) of 0.525 µM. The CC50 (NCI-H226) was over 100 µM, the TGI (NCI-H226; read-out: pTGI (converted)) was 2.63 µM and the growth at 1 µM (ACHN) was 9%. For the same compound, the growth at 0.01 µM (SW-620) was 97%, the growth at 1 µM (SK-MEL-2) was 22% and the growth at 0.1 µM (UACC-257) was 85%. The TGI (SN12C; read-out: TGI) was 4.74 µM, the CC50 (SN12C) was over 100 µM and the TGI (SN12C; read-out: pTGI (converted)) was 4.79 µM. It also gave a growth at 10 µM (U-251) of 1%, a CC50 (BT-549 [4]; [7]) of over 100 µM and a TGI (BT-549 [4]; read-out: TGI) of 4.18 µM. For the same compound, the GI50 (BT-549 [4]) was 0.851 µM, the TGI (BT-549 [4]; read-out: pTGI (converted)) was 4.17 µM and the growth at 0.01 µM (COLO 205) was 101%. It also gave a growth at 1 µM (EKVX) of 43%, a growth at 0.01 µM (OVCAR-4) of 100% and a growth at 1 µM (Malme-3M) of 12%. It also gave a growth at 10 µM (TK-10) of -9%, a growth at 0.1 µM (PC-3) of 84% and a CC50 (HCT-116; [7]) of over 100 µM. It also gave a GI50 (HCT-116) of 0.151 µM.
